A word on the inhibition: it is how much of the control response was suppressed. The IC50 is the concentration that gives 50% inhibition. By Ki is commonly meant a dissociation constant, usually derived from enzyme kinetics or from competition with a known ligand. What is called Papp is a coefficient for how fast a substance crosses the barrier. A lower Papp goes with poor permeation.

Molecules are shown by their SMILES. Active and inactive are the calls of the source. No cut-off for these calls is given here.

The target of data set [1] is Acetylcholinesterase (Electrophorus electricus) (UniProt O42275). In words: Competitive inhibition of electric eel AChE assessed as increase in slope using acetylthiocholine iodine as substrate preincubated for 20 mins followed by concentrations of substrate addition and measured after 20 mins by Lineweaver-Burk plot analysis. The settings on record: time 40.0 min.
Acetylcholinesterase (Electrophorus electricus), sequence (O42275 24-633 limits assumed): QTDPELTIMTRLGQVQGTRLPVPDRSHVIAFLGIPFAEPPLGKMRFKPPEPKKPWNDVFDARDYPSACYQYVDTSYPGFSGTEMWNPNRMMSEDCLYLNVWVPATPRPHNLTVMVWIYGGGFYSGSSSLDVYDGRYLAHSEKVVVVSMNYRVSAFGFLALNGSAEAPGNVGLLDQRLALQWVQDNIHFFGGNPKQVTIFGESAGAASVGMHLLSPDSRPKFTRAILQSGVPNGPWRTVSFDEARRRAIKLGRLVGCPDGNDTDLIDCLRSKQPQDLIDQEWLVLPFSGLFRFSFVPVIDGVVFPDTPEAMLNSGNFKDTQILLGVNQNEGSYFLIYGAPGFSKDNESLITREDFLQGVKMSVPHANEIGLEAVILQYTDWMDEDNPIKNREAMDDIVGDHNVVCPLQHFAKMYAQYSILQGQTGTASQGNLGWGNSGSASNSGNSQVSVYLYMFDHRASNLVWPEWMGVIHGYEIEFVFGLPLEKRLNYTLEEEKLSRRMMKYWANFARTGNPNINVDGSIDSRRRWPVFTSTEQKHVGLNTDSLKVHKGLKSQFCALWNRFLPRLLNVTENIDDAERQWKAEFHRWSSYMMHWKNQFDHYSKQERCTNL
Data set [2] deals with T1, Acetylcholinesterase (Electrophorus electricus, UniProt O42275). In words: Inhibition of electric eel AChE using acetylthiocholine iodine as substrate preincubated for 20 mins followed by substrate addition and measured after 20 mins by DTNB reagent based Ellman's method. (In general: In Ellman's method for cholinesterases, released thiocholine reacts with DTNB.)
T1 sequence (O42275 whole entry): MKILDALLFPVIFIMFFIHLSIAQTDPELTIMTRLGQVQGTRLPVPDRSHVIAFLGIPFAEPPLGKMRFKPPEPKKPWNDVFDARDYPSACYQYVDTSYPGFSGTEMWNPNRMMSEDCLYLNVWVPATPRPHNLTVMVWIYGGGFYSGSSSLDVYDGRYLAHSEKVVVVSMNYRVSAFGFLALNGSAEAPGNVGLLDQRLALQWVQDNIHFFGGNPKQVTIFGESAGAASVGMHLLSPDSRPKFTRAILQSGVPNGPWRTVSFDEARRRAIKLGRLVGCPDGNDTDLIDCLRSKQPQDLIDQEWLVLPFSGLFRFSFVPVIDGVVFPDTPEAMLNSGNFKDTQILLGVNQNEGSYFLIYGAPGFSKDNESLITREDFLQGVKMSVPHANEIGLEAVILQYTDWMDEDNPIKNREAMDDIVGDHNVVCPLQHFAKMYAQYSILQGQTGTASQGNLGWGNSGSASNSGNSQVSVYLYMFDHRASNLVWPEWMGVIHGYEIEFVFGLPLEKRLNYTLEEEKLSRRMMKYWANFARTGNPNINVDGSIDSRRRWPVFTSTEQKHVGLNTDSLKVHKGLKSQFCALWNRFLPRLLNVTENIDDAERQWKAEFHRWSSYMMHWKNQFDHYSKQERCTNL
A further data set addresses Cholinesterase (Equus caballus, UniProt P81908). In words: Inhibition of equine serum BuChE using butylthiocholine iodine as substrate preincubated for 20 mins followed by substrate addition and measured after 20 mins by DTNB reagent based Ellman's method.
Data set [3] is described as follows: Selectivity index, ratio of IC50 for inhibition of equine serum BuChE to IC50 for inhibition of electric eel AChE.
Data set [4] concerns the target T1, Acetylcholinesterase. The data set is described as follows: Competitive inhibition of electric eel AChE assessed as dissociation constant using acetylthiocholine as substrate by Lineweaver-Burk plot analysis.
The target of data set [5] is T2, Beta-secretase 1 (Homo sapiens, UniProt P56817). The data set is described as follows: Inhibition of recombinant human BACE1 using fluorogenic polypeptide Mca-SEVNLDAEFRK(Dpn)RRNH2 as substrate at 10 uM incubated for 60 mins by FRET assay relative to control.
T2 sequence (P56817 whole entry): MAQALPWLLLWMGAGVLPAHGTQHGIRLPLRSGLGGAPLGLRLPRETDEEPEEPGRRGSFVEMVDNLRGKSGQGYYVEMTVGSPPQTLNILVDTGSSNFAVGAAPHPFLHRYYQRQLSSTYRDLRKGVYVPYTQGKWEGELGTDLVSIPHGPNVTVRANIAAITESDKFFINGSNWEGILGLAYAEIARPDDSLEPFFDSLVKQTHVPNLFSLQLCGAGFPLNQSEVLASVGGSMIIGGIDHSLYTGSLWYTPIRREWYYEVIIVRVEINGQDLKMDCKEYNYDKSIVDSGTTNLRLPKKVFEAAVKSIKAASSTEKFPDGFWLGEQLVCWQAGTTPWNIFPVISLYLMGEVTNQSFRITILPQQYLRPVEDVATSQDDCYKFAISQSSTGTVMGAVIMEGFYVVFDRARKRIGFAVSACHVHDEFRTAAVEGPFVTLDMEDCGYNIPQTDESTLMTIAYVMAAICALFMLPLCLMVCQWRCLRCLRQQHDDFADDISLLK
In data set [6] the target is T2, Beta-secretase 1. The data set is described as follows: Inhibition of recombinant human BACE1 using fluorogenic polypeptide Mca-SEVNLDAEFRK(Dpn)RRNH2 as substrate incubated for 60 mins by FRET assay.
Data set [7] can be described thus: Effective permeability of the compound in PBS buffer at pH 7.4/EtOH buffer (7:3) incubated for 20 hrs by UV-plate spectroscopy based PAMPA-BBB assay. (The PAMPA barrier holds no transporters, so it reflects passive diffusion.)
Data set [8] is described as follows: Cytotoxicity in human HepG2 cells assessed as reduction in cell viability incubated for 48 hrs by MTT assay. The format is toxicity, cell-based. In general terms: Tetrazolium assays rely on reduction of a dye to a coloured formazan, in cell work by metabolically active cells.
Data set [9] can be described thus: Cytotoxicity in human HL7702 cells assessed as reduction in cell viability incubated for 48 hrs by MTT assay. The format is toxicity, cell-based. As to conditions: HL7702 (L02) cells.
A short description of data set [10]: Cytotoxicity in human SH-SY5Y cells assessed as reduction in cell viability incubated for 48 hrs by MTT assay. The data set is classed as toxicity, cell-based.
Data set [11] in a line: Acute toxicity in KM mouse assessed as body weight change upto 1000 mg/kg,ip and measured after 14 days. The format is organism-based. The settings on record: in vivo, 336 h, time 14 day.
The nature of data set [12]: Acute toxicity in KM mouse assessed as change in survival rate upto 1000 mg/kg,ip and measured after 14 days. The format is organism-based. As to conditions: in vivo, 336 h, time 14 day.
The nature of data set [13]: Acute toxicity in KM mouse assessed as change in behavior upto 1000 mg/kg,ip and measured after 14 days. The format is organism-based. As to conditions: in vivo, 336 h, time 14 day.

Cholinesterase, sequence (P81908 whole entry): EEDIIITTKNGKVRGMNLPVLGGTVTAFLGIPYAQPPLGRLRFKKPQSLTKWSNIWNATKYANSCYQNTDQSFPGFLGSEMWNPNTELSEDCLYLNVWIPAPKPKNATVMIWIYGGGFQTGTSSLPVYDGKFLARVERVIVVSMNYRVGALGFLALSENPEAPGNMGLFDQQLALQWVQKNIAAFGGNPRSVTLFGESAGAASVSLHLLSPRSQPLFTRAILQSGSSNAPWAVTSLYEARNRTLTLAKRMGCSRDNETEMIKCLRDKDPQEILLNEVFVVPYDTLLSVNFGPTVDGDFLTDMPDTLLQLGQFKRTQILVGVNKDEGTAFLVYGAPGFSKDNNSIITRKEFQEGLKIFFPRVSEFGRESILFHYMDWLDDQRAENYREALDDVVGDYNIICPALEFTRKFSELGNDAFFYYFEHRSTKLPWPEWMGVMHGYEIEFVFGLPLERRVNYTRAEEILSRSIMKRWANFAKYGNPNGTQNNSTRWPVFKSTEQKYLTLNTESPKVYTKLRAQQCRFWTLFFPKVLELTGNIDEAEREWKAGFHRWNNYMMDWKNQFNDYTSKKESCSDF

As for `O=c1cc(OCCCNC2CCN(Cc3ccccc3)CC2)c2ccc(-c3cccnc3)cc2o1`, the inhibition result in [1] was “Active”. In addition, the IC50 on Acetylcholinesterase [2] turned out to be 1.31 µM; against Cholinesterase, 32.3 µM; on Beta-secretase 1 [6], 1.23 µM. For the same compound, the Ratio IC50 in data set [3] stood at 24.6. Moreover, the Ki on Acetylcholinesterase [4] turned out to be 2.64 µM. Moreover, the inhibition at Beta-secretase 1 [5] was determined as 86.8%. The compound further displayed a Papp at 20 h in data set [7] of 22.8 ×10⁻⁶ cm/s. The IC50 at 48 h came to 10.2 µM in data set [8], 34.7 µM in data set [9] and 10.7 µM in data set [10]. The Activity result in [11], in [12] and in data set [13] was “Non-Toxic” in each case.
